Measured values: PubChem BioAssay AID330 (DTP/NCI, 2004)
Values joined by “and” are separate entries in the source; they are usually repeats but may differ in a detail not shown here. Equal entries are not always repeated. Inconclusive results and toxic doses are left out. How the source made its calls: active means survival T/C of 150% or more; inactive means T/C below 125% in these data.

Test system: P388 leukemia ip, CD2F1 mice, survival T/C
Test: NCI In Vivo Anticancer Drug Screen. Data for tumor model P388 Leukemia (intraperitoneal) in CD2F1 (CDF1) mice
Details: endpoint: median survival time, higher = longer survival
Outline: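 Mice carrying the transplanted tumor received test compound or vehicle. Survival was recorded in each group, and the value is the treated-group measurement divided by that of the vehicle-treated control group.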

[1] = dose: 100.0 mg/kg/injection, schedule: Q04DX003 (ip), vehicle: Klucel (hydroxypropylcellulose) (HPC)
[2] = dose: 200.0 mg/kg/injection, schedule: Q04DX003 (ip), vehicle: Klucel (hydroxypropylcellulose) (HPC)
[3] = dose: 400.0 mg/kg/injection, schedule: Q04DX003 (ip), vehicle: Klucel (hydroxypropylcellulose) (HPC)
[4] = dose: 50.0 mg/kg/injection, schedule: Q01DX009 (ip), vehicle: saline with Tween-80
[5] = dose: 100.0 mg/kg/injection, schedule: Q01DX009 (ip), vehicle: saline with Tween-80
[6] = dose: 200.0 mg/kg/injection, schedule: Q01DX009 (ip), vehicle: saline with Tween-80
[7] = dose: 60.0 mg/kg/injection, schedule: Q01DX005 (ip), vehicle: saline with Tween-80
[8] = dose: 120.0 mg/kg/injection, schedule: Q01DX005 (ip), vehicle: saline with Tween-80
[9] = dose: 240.0 mg/kg/injection, schedule: Q01DX005 (ip), vehicle: saline with Tween-80
[10] = dose: 50.0 mg/kg/injection, schedule: Q01DX005 (ip), vehicle: saline with Tween-80
[11] = dose: 100.0 mg/kg/injection, schedule: Q01DX005 (ip), vehicle: saline with Tween-80
[12] = dose: 50.0 mg/kg/injection, schedule: Q01DX005 (ip), vehicle: Klucel (hydroxypropylcellulose) (HPC)
[13] = dose: 100.0 mg/kg/injection, schedule: Q01DX005 (ip), vehicle: Klucel (hydroxypropylcellulose) (HPC)
[14] = dose: 200.0 mg/kg/injection, schedule: Q01DX005 (ip), vehicle: Klucel (hydroxypropylcellulose) (HPC)
[15] = dose: 50.0 mg/kg/injection, schedule: Q01DX009 (ip), vehicle: saline
[16] = dose: 100.0 mg/kg/injection, schedule: Q01DX009 (ip), vehicle: saline
[17] = dose: 200.0 mg/kg/injection, schedule: Q01DX009 (ip), vehicle: saline

Measured: T/C

C=CCSc1nc2ccc(NCn3c(=S)sc4ccccc43)cc2s1
inactive: [1] 89 % of control | [2] 89 % of control | [3] 89 % of control

Cc1ccc(S(=O)(=O)OC2CCN(C(=O)OCc3ccccc3)CC2)cc1
inactive: [4] 95 % of control | [5] 98 % of control | [6] 98 % of control

ClC1=C(Cl)C2(Cl)C3C4CC(C5OC45)C3N1C2(Cl)Cl (stereo not given)
inactive: dose: 100.0 mg/kg/injection, schedule: Q01DX001 (ip), vehicle: saline with Tween-80 109 % of control | dose: 200.0 mg/kg/injection, schedule: Q01DX001 (ip), vehicle: saline with Tween-80 103 % of control

CC([NH-])C[NH-].O=C(O)C(=O)O.[Pt+2]
active: dose: 6.25 mg/kg/injection, schedule: Q04DX002 (ip), vehicle: saline with Tween-80 151 % of control | dose: 6.25 mg/kg/injection, schedule: Q04DX002 (ip), vehicle: saline 150 % of control

COc1ccc([N+](=O)[O-])cc1NOC(C)=O
inactive: [1] 111 % of control | [2] 119 % of control | [3] 94 % of control

COc1cc2oc(=O)cc(C)c2cc1N=C=S
inactive: dose: 50.0 mg/kg/injection, schedule: Q04DX003 (ip), vehicle: suspension in saline 100 % of control | dose: 100.0 mg/kg/injection, schedule: Q04DX003 (ip), vehicle: suspension in saline 100 % of control | dose: 200.0 mg/kg/injection, schedule: Q04DX003 (ip), vehicle: suspension in saline 92 % of control

COc1ccccc1C1=Nc2ccccc2N=C(c2ccccc2O)C1
inactive: [7] 107 % of control | [8] 100 % of control | [9] 90 % of control

CCS(=O)(=O)CCN1C(=O)CN=C(c2ccccc2F)c2cc(Cl)ccc21
inactive: dose: 12.5 mg/kg/injection, schedule: Q01DX009 (ip), vehicle: saline with Tween-80 102 % of control | dose: 25.0 mg/kg/injection, schedule: Q01DX009 (ip), vehicle: saline with Tween-80 104 % of control | [4] 103 % of control | [5] 110 % of control

Nc1ccc([N+](=O)[O-])cc1
inactive: dose: 12.5 mg/kg/injection, schedule: Q01DX009 (ip), vehicle: distilled water + Tween-80 102 % of control | dose: 25.0 mg/kg/injection, schedule: Q01DX009 (ip), vehicle: distilled water + Tween-80 100 % of control | dose: 50.0 mg/kg/injection, schedule: Q01DX009 (ip), vehicle: distilled water + Tween-80 103 % of control | dose: 100.0 mg/kg/injection, schedule: Q01DX009 (ip), vehicle: distilled water + Tween-80 103 % of control | dose: 200.0 mg/kg/injection, schedule: Q01DX009 (ip), vehicle: distilled water + Tween-80 102 % of control

NN1CC(=O)N(c2ccccc2)CC1=O
inactive: [4] 100 % of control | [5] 94 % of control | [6] 94 % of control

CCCCCCCCCCCCCCCC(=O)O[C@@H]1[C@@H](C)[C@@]2(O)[C@@H](C=C(CO)C[C@]3(O)C(=O)C(C)=C[C@@H]23)[C@H]2[C@]1(OC(C)=O)[C@]2(C)CO
inactive: dose: 0.13 mg/kg/injection, schedule: Q01DX005 (ip), vehicle: distilled water + Tween-80 117 % of control and 120 % of control | dose: 0.25 mg/kg/injection, schedule: Q01DX005 (ip), vehicle: distilled water + Tween-80 111 % of control | dose: 0.5 mg/kg/injection, schedule: Q01DX005 (ip), vehicle: distilled water + Tween-80 106 % of control

O=[N+]([O-])CC(OCCCCCCCCCCO)C(Cl)(Cl)Cl (stereo not given)
inactive: [4] 104 % of control | [5] 100 % of control | [6] 100 % of control

CC1(C)CC(OP(=[Se])(c2ccccc2)c2ccccc2)CC(C)(C)N1O
inactive: dose: 12.5 mg/kg/injection, schedule: Q01DX001 (ip), vehicle: Klucel (hydroxypropylcellulose) (HPC) 96 % of control | dose: 25.0 mg/kg/injection, schedule: Q01DX001 (ip), vehicle: Klucel (hydroxypropylcellulose) (HPC) 99 % of control | dose: 50.0 mg/kg/injection, schedule: Q01DX001 (ip), vehicle: Klucel (hydroxypropylcellulose) (HPC) 104 % of control

Cc1noc(C)c1C1(Br)C(Br)CCCC1Br (stereo not given)
inactive: dose: 100.0 mg/kg/injection, schedule: Q04DX002 (ip), vehicle: saline with Tween-80 105 % of control | dose: 200.0 mg/kg/injection, schedule: Q04DX002 (ip), vehicle: saline with Tween-80 104 % of control | dose: 400.0 mg/kg/injection, schedule: Q04DX002 (ip), vehicle: saline with Tween-80 114 % of control

N#Cc1ccc(OCCCCOc2ccc(C#N)cc2)cc1
inactive: dose: 6.25 mg/kg/injection, schedule: Q01DX005 (ip), vehicle: saline with Tween-80 95 % of control | dose: 12.5 mg/kg/injection, schedule: Q01DX005 (ip), vehicle: saline with Tween-80 97 % of control | dose: 25.0 mg/kg/injection, schedule: Q01DX005 (ip), vehicle: saline with Tween-80 91 % of control

O=C(Nc1ccccc1-c1ccccc1)c1ccc2c(c1)OCO2
inactive: [10] 97 % of control | [11] 111 % of control | dose: 200.0 mg/kg/injection, schedule: Q01DX005 (ip), vehicle: saline with Tween-80 97 % of control

NC(Cc1ccc([N+](=O)[O-])cc1)C(=O)O (stereo not given)
inactive: dose: 100.0 mg/kg/injection, schedule: Q01DX001 (ip), vehicle: saline 104 % of control | dose: 100.0 mg/kg/injection, schedule: Q04DX003 (ip), vehicle: saline with Tween-80 104 % of control | dose: 200.0 mg/kg/injection, schedule: Q01DX001 (ip), vehicle: saline 104 % of control | dose: 200.0 mg/kg/injection, schedule: Q04DX003 (ip), vehicle: saline with Tween-80 100 % of control | dose: 400.0 mg/kg/injection, schedule: Q01DX001 (ip), vehicle: saline 109 % of control | dose: 400.0 mg/kg/injection, schedule: Q04DX003 (ip), vehicle: saline with Tween-80 100 % of control

Nc1ccn(COC(COCc2ccccc2)COCc2ccccc2)c(=O)n1
inactive: [7] 105 % of control | [8] 96 % of control | [9] 110 % of control

Cc1ccn(C)c(=N)c1
inactive: [4] 118 % of control | [5] 100 % of control | [6] 104 % of control

NC(Cc1c[nH]c(=O)[nH]c1=O)C(=O)O (stereo not given)
inactive: [12] 96 % of control | [13] 100 % of control | [14] 88 % of control

COCC(O)C(NC(=O)CCl)C(=O)O (stereo not given)
inactive: [15] 110 % of control and 97 % of control | [16] 90 % of control and 98 % of control | [17] 95 % of control

CC1=CC(=O)C(/C=C(\C)[N+](=O)[O-])=CC1=O
inactive: dose: 12.5 mg/kg/injection, schedule: Q01DX009 (ip), vehicle: Klucel (hydroxypropylcellulose) (HPC) 97 % of control | dose: 25.0 mg/kg/injection, schedule: Q01DX009 (ip), vehicle: Klucel (hydroxypropylcellulose) (HPC) 99 % of control

Cc1ccc(O)c(C(=NCCN=C(c2ccccc2)c2cc(C)ccc2O)c2ccccc2)c1
inactive: [12] 103 % of control and 106 % of control and 98 % of control | [13] 100 % of control and 104 % of control and 118 % of control | [14] 100 % of control and 101 % of control and 121 % of control | dose: 400.0 mg/kg/injection, schedule: Q01DX005 (ip), vehicle: Klucel (hydroxypropylcellulose) (HPC) 96 % of control

COC(=N)CCNC(=O)C(O)C(O)C(=O)NCCC(=N)OC (stereo not given)
inactive: [15] 102 % of control | [16] 89 % of control | [17] 105 % of control

COc1nc2c(=O)[nH]cnc2n1C1OC(CO)C(O)C1O (stereo not given)
inactive: dose: 60.0 mg/kg/injection, schedule: Q01DX005 (ip), vehicle: saline 104 % of control | dose: 120.0 mg/kg/injection, schedule: Q01DX005 (ip), vehicle: saline 97 % of control | dose: 240.0 mg/kg/injection, schedule: Q01DX005 (ip), vehicle: saline 98 % of control

Clc1ccc(CSCc2c(CSCc3ccc(Cl)cc3)c(CSCc3ccc(Cl)cc3)c(CSCc3ccc(Cl)cc3)c(CSCc3ccc(Cl)cc3)c2CSCc2ccc(Cl)cc2)cc1
inactive: [4] 102 % of control | [5] 102 % of control | [6] 99 % of control

COC(=O)c1nn(-c2ccccc2)c2c1C(=O)c1ccccc1C2=O
inactive: [12] 97 % of control | [13] 92 % of control | [14] 98 % of control

NCC1CCCCO1 (stereo not given)
inactive: dose: 50.0 mg/kg/injection, schedule: Q01DX005 (ip), vehicle: saline 98 % of control | dose: 100.0 mg/kg/injection, schedule: Q01DX005 (ip), vehicle: saline 99 % of control | dose: 200.0 mg/kg/injection, schedule: Q01DX005 (ip), vehicle: saline 91 % of control

CCCCN(CCCC)CNC(=O)c1ccccc1
inactive: [10] 97 % of control | [11] 100 % of control
